# Experiments:
# Format in all cases: cell-based
# [1] = system: Staphylococcus epidermidis; experiment: Contact germicidal screen, Staphylococcus epidermidis ATCC No. 12228
# Experimental: (§1) The organisms used in the contact germicidal screen are all maintained as stock cultures on nutrient agar […] 4° C. They are transferred and biochemically diagnosed monthly. The five organisms used are: The media used are: […] Overnight cultures of the test organisms are grown in tryptose phosphate broth. After 15-16 hours, the cultures are centrifuged at […] for 15 minutes, and the supernatant replaced with fresh warm (37° C.) media. After two hours of incubation, the absorbance of the culture at 650 nm is determined and diluted with nutrient broth to 1×10^7 colony forming units per ml (using a previous determined standard curve: colony forming units/ml vs. absorbance at 650). The diluted cultures are maintained at 4°-8° C. throughout the screen. The compounds are weighed into sterile 100 ml volumetric flasks, and immediately before screening dissolved in one of the following buffers: 0.1 M NaOAc pH 4.6 or 0.1 M NaH2 PO4 pH 7.0. If solubility poses a problem, 10-30% methanol is used to effect solution. Two denaturing agents are also tested: […] Horse Serum restored with 100 ml distilled water and 10% Trition×100. When used, 2.5 ml of the denaturing agent is mixed with 2.5 ml of double strength test solution thirty minutes before the bacterial suspension is added. The screen is initiated when 0.2 ml of the bacterial suspension is added to 5.0 ml of the test solution contained in a sterile 25 ml glass stoppered flask. At intervals of 0.5, 2.5, 5.0, 10.0 and 15.0 minutes, a loopful of the inoculated test solution is subcultured into 5 ml of sterile nutrient broth and mixed with a vortex, the high dilution serving to stop the action of the compound. All of the subculture tubes are incubated at 37° C. and checked for signs of growth by turbidity at 1, 3, 5 and 7 days. The earliest subculture time at which no growth is present is considered the endpoint and is recorded as the sterilization time. An aliquot of 0.2 ml of the diluted culture is transferred to 5 ml of buffer to simulate 0.2 ml in 5 ml of test solution. (a) Purity: A loopful of the inoculated buffer is streaked onto nutrient agar to check colony morphology and lack of contaminants. (b) Viability: A loopful of the inoculated buffer is subcultured to 5 ml of nutrient broth as in the screen and incubated at 37° C. for 24 hours. (c) Dilution of the Test Solution: A loopful of the test solution is transferred to a 5 ml tube of nutrient broth, and a loopful of the inoculated buffer is transferred to the same tube of broth. […] (d) Purity of Organisms in the Test Solution: After the 15 minute subculture, a loopful of the inoculated test solution is streaked onto nutrient agar to insure that contamination has not occurred during the screen. (e) lack of Bactericidal Activity of Buffers and Other Solvents: Before a buffer or other solvent is used as a diluent, it is screened against the five organisms to insure that the buffer or solvent has no antibacterial activity itself.
# [2] = system: Salmonella typhimurium; experiment: Contact germicidal screen, Salmonella typhimurium ATCC No. 13311
# Experimental: as §1
# [3] = system: Rhizopus oryzae; experiment: Contact fungicidal screen, Rhizopus oryzae; details: 0.1M NaOAc pH 4.6
# [4] = 10.0+ PPM, 0.1M NaOAc pH 4.6, screened simultaneously with four other compounds
# [5] = 291.4 PPM, Triton X100 (10% solution):pH 4.6 buffer 1:1
# [6] = 291.4 PPM, horse serum:pH 4.6 buffer 1:1
# [7] = 300 PPM with 50% Horse Serum, 0.1M NaOAc pH 4.6
# [8] = 300 PPM with 50% Triton X100, 0.1M NaOAc pH 4.6
# [9] = 1000 PPM with 50% Horse Serum, 0.1M NaOAc pH 4.6
# [10] = 1024.4 PPM, 0.1M NaH2PO4 pH 7.0
# [11] = 1042.0 PPM, horse serum:pH 4.6 buffer 1:1
structure (smiles),measurement,setting,value
"CC(C)(COC(=O)CCCC(=O)O)N(Cl)Cl [(V), 2-dichloramino-2-methylpropyl-hemiglutarate]",Sterilization Time,[1]; [4],10.0 min
same,Sterilization Time,"[1]; 10.0 PPM, 0.1M NaH2PO4 pH 7.0",15 min
same,Sterilization Time (summary),"[1]; 10 PPM, 0.1M NaOAc pH 4.6",10.0 min
same,Sterilization Time,"[1]; 10.0 PPM, 0.1M NaOAc pH 4.6",10.0 min
same,Sterilization Time,"[1]; 99.1 PPM, 0.1M NaOAc pH 4.6",2.5 min
same,Sterilization Time (summary),"[1]; 100 PPM, 0.1M NaOAc pH 4.6",2.5 min
same,Sterilization Time,"[1]; 106.7 PPM, 0.1M NaH2PO4 pH 7.0",15 min
same,Sterilization Time,[1]; [5],2.5 min
same,Sterilization Time,[1]; [6],15 min
same,Sterilization Time (summary),[1]; [7],15 min
same,Sterilization Time (summary),[1]; [8],2.5 min
same,Sterilization Time,"[1]; 911.8 PPM, 0.1M NaOAc pH 4.6",0.5 min
same,Sterilization Time (summary),[1]; [9],2.5 min
same,Sterilization Time (summary),"[1]; 1000 PPM, 0.1M NaOAc pH 4.6",0.5 min
same,Sterilization Time,[1]; [10],10.0 min
same,Sterilization Time,[1]; [11],2.5 min
same,Sterilization Time,[2]; [4],2.5 min
same,Sterilization Time,"[2]; 10.0 PPM, 0.1M NaH2PO4 pH 7.0",15 min
same,Sterilization Time (summary),"[2]; 10 PPM, 0.1M NaOAc pH 4.6",2.5 min
same,Sterilization Time,"[2]; 10.0 PPM, 0.1M NaOAc pH 4.6",5.0 min
same,Sterilization Time,"[2]; 99.1 PPM, 0.1M NaOAc pH 4.6",0.5 min
same,Sterilization Time (summary),"[2]; 100 PPM, 0.1M NaOAc pH 4.6",0.5 min
same,Sterilization Time,"[2]; 106.7 PPM, 0.1M NaH2PO4 pH 7.0",15 min
same,Sterilization Time,[2]; [5],0.5 min
same,Sterilization Time,[2]; [6],10.0 min
same,Sterilization Time (summary),[2]; [7],10.0 min
same,Sterilization Time (summary),[2]; [8],0.5 min
same,Sterilization Time,"[2]; 911.8 PPM, 0.1M NaOAc pH 4.6",0.5 min
same,Sterilization Time (summary),[2]; [9],2.5 min
same,Sterilization Time (summary),"[2]; 1000 PPM, 0.1M NaOAc pH 4.6",0.5 min
same,Sterilization Time,[2]; [10],5.0 min
same,Sterilization Time,[2]; [11],2.5 min
same,Sterilization Time,[3]; 10 PPM,15 min
same,Sterilization Time,[3]; 100 PPM,15 min
same,Sterilization Time,[3]; 1000 PPM,15 min

# Source: patent publication US4386103A, “Dichloroamino acid derivatives useful as potent germicidal and fungicidal agents” (Merck & Co., Inc., priority 1981, dated 1983)
